Source: PMC7369637, “Inhibition of Resistance-Refractory P. falciparum Kinase PKG Delivers Prophylactic, Blood Stage, and Transmission-Blocking Antiplasmodial Activity” (Cell Chemical Biology, 2020)
Where two headings read alike, the source gives them in different places.

Tests used:
[1] = biological target: T1, calcium-dependent protein kinase 1 (CDPK1) (PF3D7_0217500) (Plasmodium falciparum, UniProt P62344); test: Competitive chemoproteomics in Pf lysates (Kinobeads / bead-immobilized compound); assay type: binding; details: for Kd: read-out: Kdapp, CDPK1
T1 construct: endogenous in cells; host or cells: P. falciparum asexual blood-stage parasites (trophozoite stage)
T1 sequence (P62344 whole entry): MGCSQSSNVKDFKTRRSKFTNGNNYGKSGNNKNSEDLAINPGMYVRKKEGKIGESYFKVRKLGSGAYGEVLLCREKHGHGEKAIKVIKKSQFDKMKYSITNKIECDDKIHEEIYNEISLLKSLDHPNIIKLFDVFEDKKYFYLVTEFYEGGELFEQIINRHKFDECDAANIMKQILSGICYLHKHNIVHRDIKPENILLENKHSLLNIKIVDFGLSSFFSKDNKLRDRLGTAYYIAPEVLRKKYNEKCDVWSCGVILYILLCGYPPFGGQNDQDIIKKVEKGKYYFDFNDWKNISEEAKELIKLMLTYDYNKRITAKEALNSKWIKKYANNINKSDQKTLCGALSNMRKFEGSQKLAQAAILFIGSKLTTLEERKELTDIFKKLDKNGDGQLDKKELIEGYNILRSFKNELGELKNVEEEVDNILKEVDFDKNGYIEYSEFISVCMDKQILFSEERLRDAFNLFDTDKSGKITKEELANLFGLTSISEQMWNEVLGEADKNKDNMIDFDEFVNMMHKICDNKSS
Protocol: (§1) Pf protein extracts were prepared as described elsewhere ([Paquet et al., 2017]). Parasite cultures at the trophozoite stage were harvested, washed twice in RPMI 1640 medium (Gibco), and lysed by the addition of saponin to a final concentration of 0.1% for 5 min at room temperature. Free parasites were sedimented by centrifugation (3500 rpm for 10 min), washed three times with phosphate-buffered saline, and stored at −80°C. Parasites were resuspended in cell lysis buffer (50 mM tris-HCl (pH 7.5), 5% glycerol, 1.5 mM MgCl2, […], 1 mM […], 25 mM sodium fluoride, 0.8% NP-40, EDTA-free protease inhibitor cocktail tablets (Roche Diagnostics), and 1 mM DTT) and disrupted by sonication (Sonics Vibra-Cell) using two 30-s cycles on ice at half-amplitude. After centrifugation (140,000g for 1 h at 4°C), soluble proteins were recovered from the supernatants, and protein concentrations of each sample were estimated using the Lowry-based DC assay (Bio-Rad). Samples were stored at −80°C until use.
(§2) Kinobeads were prepared by immobilizing Bis-(III) indolyl-maleimide, purvalanol B, staurosporine and CZC8004, and the analogs of PD173955, sunitinib and vandetanib on NHS-activated Sepharose 4 beads (Amersham) ([Bantscheff et al., 2007]). […] The chemoproteomic affinity-capturing experiments were performed as previously described ([Bantscheff et al., 2011]). Briefly, beads were washed and equilibrated in lysis buffer (50 mM Tris-HCl, pH 7.4, 0.4 % Igepal-CA630, 1.5 mM MgCl2, 5 % Glycerol, 150 mM NaCl, 25 mM NaF, 1 mM Na3VO4, 1 mM DTT, and one cOmplete EDTA-free protease inhibitor tablet (Roche) per 25 mL). The beads were incubated at 4°C for 1 h with either 0.1 ml (0.3 mg) Pf blood stage extract or 0.5 mL (2.5 mg) human cell/tissue protein extract (a mixture of HEK-293, K-562, Hep G2 , and placental cells), which was pre-incubated with compound or DMSO (vehicle control). 10 samples were measured in parallel (TMT 10-plex ([Werner et al., 2014])) to generate values for the affinity of the beads to the bound proteins (“depletion” values, 4 samples) and to generate IC50 values (6 samples) in a single experiment. Apparent dissociation constants were determined after accounting for protein depletion by the beads ([Bantscheff et al., 2011]). Beads were transferred to Filter plates (Durapore PVDF membrane, Merck Millipore), washed with lysis buffer, and eluted with SDS sample buffer.
(§3) Proteins were digested according to a modified single pot solid-phase sample preparation (SP3) protocol ([Hughes et al., 2014]). Peptides were labeled with isobaric mass tags (Thermo Fisher Scientific, Waltham, MA) using 10-plex TMT reagents, enabling relative quantification of 10 conditions in a single experiment ([Werner et al., 2014]). The labeling reactions and LC-MS/MS measurements using Q Exactive Orbitrap or Orbitrap Fusion Lumos mass spectrometers (Thermo Fisher Scientific) were performed as described elsewhere ([Sridharan et al., 2019]). Mascot 2.4 (Matrix Science, Boston, MA) was used for protein identification by using a 10 parts per million mass tolerance for peptide precursors and 20 mD (HCD) mass tolerance for fragment ions. To create the fasta file for mascot searching, all proteins corresponding to the taxonomy ‘Plasmodium falciparum (isolate 3D7)’ were downloaded from Uniprot (release 20170621) and supplemented with common contaminant protein sequences of bovine serum albumin, porcine trypsin and mouse, rat, sheep and dog keratins. To assess the false discovery rate (FDR), “decoy” proteins (reverse of all protein sequences) were created and added to the database, resulting in a database containing a total of 14266 protein sequences, with 50% forward and 50% reverse. For peptide and protein identification of human proteins see ([Sridharan et al., 2019]). […]

[2] = biological target: putative amino acid transporter (AAT) (PF3D7_1231400) (Plasmodium falciparum, UniProt Q8I5A6); test: as above; assay type: binding; details: lysates exposed to 40 μM of the same compound vs vehicle
Chain of putative amino acid transporter (AAT) (PF3D7_1231400) (Q8I5A6 entry or part of it): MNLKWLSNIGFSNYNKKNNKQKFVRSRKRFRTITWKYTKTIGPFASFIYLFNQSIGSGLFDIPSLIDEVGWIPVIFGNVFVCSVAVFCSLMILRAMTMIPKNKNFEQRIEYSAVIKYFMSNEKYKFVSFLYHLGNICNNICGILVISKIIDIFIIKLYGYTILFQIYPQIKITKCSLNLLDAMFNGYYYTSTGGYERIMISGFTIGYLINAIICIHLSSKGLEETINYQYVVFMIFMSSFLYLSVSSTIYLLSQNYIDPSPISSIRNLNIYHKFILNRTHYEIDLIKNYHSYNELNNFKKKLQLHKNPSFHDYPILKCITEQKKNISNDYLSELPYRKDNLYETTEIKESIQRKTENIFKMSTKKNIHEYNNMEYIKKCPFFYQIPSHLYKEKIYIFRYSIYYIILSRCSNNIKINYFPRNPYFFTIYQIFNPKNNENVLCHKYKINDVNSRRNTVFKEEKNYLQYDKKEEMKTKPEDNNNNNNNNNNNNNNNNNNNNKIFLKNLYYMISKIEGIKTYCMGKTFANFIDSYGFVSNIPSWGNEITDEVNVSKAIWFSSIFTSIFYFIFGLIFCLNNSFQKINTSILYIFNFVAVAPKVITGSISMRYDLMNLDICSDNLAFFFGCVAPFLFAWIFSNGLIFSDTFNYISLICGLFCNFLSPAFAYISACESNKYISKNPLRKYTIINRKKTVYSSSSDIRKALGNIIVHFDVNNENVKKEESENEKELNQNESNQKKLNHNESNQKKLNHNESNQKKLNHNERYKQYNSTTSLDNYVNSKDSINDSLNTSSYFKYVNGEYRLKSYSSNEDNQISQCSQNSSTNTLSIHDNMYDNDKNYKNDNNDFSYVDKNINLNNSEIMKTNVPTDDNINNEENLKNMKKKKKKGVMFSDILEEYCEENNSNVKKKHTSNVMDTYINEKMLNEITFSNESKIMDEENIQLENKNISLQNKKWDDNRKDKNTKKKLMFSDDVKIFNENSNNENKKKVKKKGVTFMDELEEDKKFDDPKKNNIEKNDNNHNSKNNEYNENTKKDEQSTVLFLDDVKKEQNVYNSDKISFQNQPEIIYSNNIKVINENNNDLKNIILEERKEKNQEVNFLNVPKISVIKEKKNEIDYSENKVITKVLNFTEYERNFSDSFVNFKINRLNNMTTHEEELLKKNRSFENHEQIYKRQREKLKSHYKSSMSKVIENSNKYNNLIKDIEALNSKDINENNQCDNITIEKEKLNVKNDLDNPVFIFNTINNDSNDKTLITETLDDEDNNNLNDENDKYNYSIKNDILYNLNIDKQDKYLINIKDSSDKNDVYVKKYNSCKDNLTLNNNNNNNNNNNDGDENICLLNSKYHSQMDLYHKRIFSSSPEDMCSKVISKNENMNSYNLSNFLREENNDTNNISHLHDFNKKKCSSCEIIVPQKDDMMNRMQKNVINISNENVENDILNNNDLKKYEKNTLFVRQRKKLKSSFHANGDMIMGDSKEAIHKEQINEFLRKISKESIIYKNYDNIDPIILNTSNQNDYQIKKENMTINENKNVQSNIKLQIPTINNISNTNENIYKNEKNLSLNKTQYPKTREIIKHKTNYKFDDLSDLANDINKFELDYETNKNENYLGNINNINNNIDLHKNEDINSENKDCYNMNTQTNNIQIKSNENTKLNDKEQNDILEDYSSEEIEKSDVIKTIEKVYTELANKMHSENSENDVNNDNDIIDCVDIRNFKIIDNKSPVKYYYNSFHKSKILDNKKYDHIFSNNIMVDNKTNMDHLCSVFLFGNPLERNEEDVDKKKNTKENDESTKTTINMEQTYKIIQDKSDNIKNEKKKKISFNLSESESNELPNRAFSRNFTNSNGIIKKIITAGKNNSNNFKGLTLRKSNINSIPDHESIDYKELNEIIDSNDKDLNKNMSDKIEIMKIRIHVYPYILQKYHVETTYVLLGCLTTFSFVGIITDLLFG
Protocol: as §1, §2, §3

**Q.** Which results are given for `CC(C)(CN)c1nc(-c2ccc(Cl)c(O)c2)c(-c2ccncc2)[nH]1` [MMV030084]?
**A.** Kd ([1]; '084-beads (bead-immobilized MMV030084)): 220 nM; Kd ([1]; Kinobeads): 215 nM; Kd ([1]; five independent experiments, lowest tested concentration 0.1 μM): < 100 nM; CDPK1 pull-down by bead-bound compound ([1]; lysates exposed to 40 μM of the same compound vs vehicle): pulled down; Kd ([1]; two follow-up experiments with lower concentrations): 215 to 220 nM; AAT pull-down by bead-bound compound [2]: pulled down
